Test [1] has as its target Kelch domain of human KEAP1 (321-624 aa) (Homo sapiens (Human), UniProt Q14145). The test is described as follows: KEAP1 KELCH ThermoFluor binding assay.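 Also: Ligand-induced melting temperature shift of E. coli-expressed KEAP1 Kelch protein, Kd estimated from concentration-response curves of ΔTm.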 As to conditions: KEAP Kelch […], 1,8-ANS, pH 7.0, average of results obtained, read-out: Tf Kd. In general terms: Differential scanning fluorimetry follows unfolding on heating by fluorescence.
Test [2] deals with Glo-Response ARE-luc2P HEK293 cell line. The test is described as follows: ARE luciferase reporter cell-based assay.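 Also: luciferase signal tracks Nrf2 activation of the ARE once compounds disrupt KEAP1-Nrf2 binding, read with One-Glo reagent, DMSO serving as low control.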 As to conditions: Homo sapiens, HEK293, 24 h, average of results obtained. A general note: In a reporter assay the amount or activity of a reporter protein is the signal.

In general, Kd refers to the equilibrium constant for the complex coming apart. By EC50 is commonly meant the concentration that produces a half-maximal response. Higher therefore signals lower potency in that assay.

Chain of Kelch domain of human KEAP1 (321-624 aa) (Q14145 321-624): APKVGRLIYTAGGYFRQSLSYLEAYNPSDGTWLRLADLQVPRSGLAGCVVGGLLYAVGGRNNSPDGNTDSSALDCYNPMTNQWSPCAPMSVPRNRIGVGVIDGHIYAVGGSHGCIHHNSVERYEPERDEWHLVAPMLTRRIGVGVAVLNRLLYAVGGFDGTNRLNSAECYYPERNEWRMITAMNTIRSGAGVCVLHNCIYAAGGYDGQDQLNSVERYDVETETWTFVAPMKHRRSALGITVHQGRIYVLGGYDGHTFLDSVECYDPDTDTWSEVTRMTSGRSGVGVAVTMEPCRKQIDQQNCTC

`Cc1ccc([C@H](c2ccn3c(C(F)F)nnc3c2C)C(C)(C)C(=O)O)nc1CN1CC2(CC2)Oc2nc(OCCN3CCCC3)c(C)cc2S1(=O)=O` (single isomer, unassigned) [Example 359, (*R)-3-(3-(Difluoromethyl)-8-methyl-[1,2,4]triazolo[4,3-a]pyridin-7-yl)-2,2-dimethyl-3-(5-methyl-6-((8′-methyl-1′,1′-dioxido-7′-(2-(pyrrolidin-1-yl)ethoxy)spiro[cyclopropane-1,4′-pyrido[2,3-b][[,4,5]oxathiazepin]-2′(3′H)-yl)methyl)pyridin-2-yl)propanoic Acid]: in test [1], the Kd was less than 1 nM. In addition, the EC50 in test [2] was determined as 1230 nM.

As for `Cc1ccc([C@@H](CC(=O)O)c2ccc3c(nnn3C3CC3)c2C)cc1CN1C[C@]2(C)CCCN2c2ncccc2S1(=O)=O` (single isomer, unassigned) [Example 220, (*R)-3-(1-Cyclopropyl-4-methyl-1H-benzo[d][1,2,3]triazol-5-yl)-3-(4-methyl-3-(((*S)-7a-methyl-5,5-dioxido-7a,8,9,10-tetrahydropyrido[2,3-f]pyrrolo[2,1-d][1,2,5]thiadiazepin-6(7H)-yl)methyl)phenyl)propanoic Acid], the Kd in test [1] is less than 1 nM. The compound also displayed a concentration for a half-maximal effect (EC50) in test [2] of 61 nM.

In the case of `Cc1cnc2c(c1)S(=O)(=O)N(Cc1cc([C@@H](CC(=O)O)c3ccn4c(C(F)(F)F)nnc4c3C)ccc1C)CC1(CC1)O2` (single isomer, unassigned) [Example 64, (*R)-3-(4-methyl-3-((8′-methyl-1′,1′-dioxidospiro[cyclopropane-1,4′-pyrido[2,3-b][1,4,5]oxathiazepin]-2′(3′H)-yl)methyl)phenyl)-3-(8-methyl-3-(trifluoromethyl)-[1,2,4]triazolo[4,3-a]pyridin-7-yl)propanoic Acid], the dissociation constant (Kd) in test [1] was less than 1 nM. Moreover, the EC50 in test [2] came to 304 nM.

As to `Cc1ccc([C@H](CC(=O)O)c2ccc3c(nnn3CC3CC3)c2C(F)F)cc1CN1C[C@H]2CCCCN2c2ncccc2S1(=O)=O` (single isomer, unassigned) [Example 170, (*S)-3-(1-(Cyclopropylmethyl)-4-(difluoromethyl)-1H-benzo[d][1,2,3]triazol-5-yl)-3-(3-(((*R)-5,5-dioxido-7,7a,8,9,10,11-hexahydro-6H-dipyrido[2,1-d:2′,3′-f][1,2,5]thiadiazepin-6-yl)methyl)-4-methylphenyl)propanoic Acid], the dissociation constant (Kd) in test [1] is less than 1 nM. Moreover, a half-maximal response in test [2] (EC50) required 110 nM.

As to `CC[C@@H]1CN(Cc2nc([C@H](CC(=O)O)c3ccc4c(nnn4C4CC4)c3C)ccc2C)S(=O)(=O)c2cccnc2O1` (single isomer, unassigned) [Example 176, (*R)-3-(1-Cyclopropyl-4-methyl-1H-benzo[d][1,2,3]triazol-5-yl)-3-(6-(((R)-4-ethyl-1,1-dioxido-3,4-dihydro-2H-pyrido[2,3-b][1,4,5]oxathiazepin-2-yl)methyl)-5-methylpyridin-2-yl)propanoic Acid], the equilibrium dissociation constant (Kd) in test [1] was less than 1 nM. The response in test [2] was half-maximal at 31 nM (EC50).

As to `Cc1ccc([C@@H](c2ccn3c(C(F)F)nnc3c2C)C(C)(C)C(=O)O)cc1CN1CC2(CC2)Oc2nc(OCCN3CCCCC3)c(C)cc2S1(=O)=O` (single isomer, unassigned) [Example 374, (*S)-3-(3-(Difluoromethyl)-8-methyl-[1,2,4]triazolo[4,3-a]pyridine-7-yl)-2,2-dimethyl-3-(4-methyl-3-((8′-methyl-1′,1′-dioxido-7′-(2-(piperidin-1-yl)ethoxy)spiro[cyclopropane-1,4′-pyrido[2,3-b][1,4,5]oxathiazepin]-2′(3′H)-yl)methyl)phenyl)propanoic Acid], in test [1], the dissociation constant (Kd) is less than 1 nM. For the same compound, the midpoint of the response in test [2], the EC50, lay at 4.8 nM.

As for `Cc1ccc([C@H](CC(=O)O)c2ccn3c(C(F)F)nnc3c2C)cc1CN1C[C@@H]2CCCN2c2ncc(C#N)cc2S1(=O)=O` (single isomer, unassigned) [Example 543, (*S)-3-(3-(((S)-3-Cyano-5,5-dioxido-7a,8,9,10-tetrahydropyrido[2,3-f]pyrrolo[2,1-d][1,2,5]thiadiazepin-6(7H)-yl)methyl)-4-methylphenyl)-3-(3-(difluoromethyl)-8-methyl-[1,2,4]triazolo[4,3-a]pyridin-7-yl)propanoic Acid], the Kd in test [1] was less than 1 nM. The compound further registered a 50% effective concentration (EC50) in test [2] of 42.9 nM.

`Cc1ccc([C@H](CC(=O)O)c2ccn3c(C(F)(F)F)nnc3c2C)nc1CN1C[C@H]2CCCCN2c2ncc(C#N)cc2S1(=O)=O` (single isomer, unassigned) [Example 36, (*R)-3-(6-(((*R)-3-Cyano-5,5-dioxido-7,7a,8,9,10,11-hexahydro-6H-dipyrido[2,1-d:2′,3′-f][1,2,5]thiadiazepin-6-yl)methyl)-5-methylpyridin-2-yl)-3-(8-methyl-3-(trifluoromethyl)-[1,2,4]triazolo[4,3-a]pyridin-7-yl)propanoic Acid]: the dissociation constant Kd in test [1] was less than 1 nM. Also, the EC50 in test [2] was found to be 15.2 nM.

On to `Cc1ccc([C@@H](CC(=O)O)c2ccn3c(C(F)(F)F)nnc3c2C)nc1CN1C[C@@H]2CCCCN2c2ncccc2S1(=O)=O` (single isomer, unassigned) [Example 479, (*S)-3-(6-(((*S)-5,5-Dioxido-7,7a,8,9,10,11-hexahydro-6H-dipyrido[2,1-d:2′,3′-f][1,2,5]thiadiazepin-6-yl)methyl)-5-methylpyridin-2-yl)-3-(8-methyl-3-(trifluoromethyl)-[1,2,4]triazolo[4,3-a]pyridin-7-yl)propanoic Acid], for which, in test [1], the Kd is less than 1 nM. The compound further displayed a 50% effective concentration (EC50) in test [2] of 48.8 nM.

On to `Cc1ccc(C(CC(=O)O)c2ccn3c(C(F)(F)F)nnc3c2C)nc1CN1CC2(CC2)Oc2ncc(F)cc2S1(=O)=O` (centres unmarked) [Example 508, 3-(6-((8′-Fluoro-1′,1′-dioxidospiro[cyclopropane-1,4′-pyrido[2,3-b][1,4,5]oxathiazepin]-2′(3′H)-yl)methyl)-5-methylpyridin-2-yl)-3-(8-methyl-3-(trifluoromethyl)-[1,2,4]triazolo[4,3-a]pyridin-7-yl)propanoic Acid], for which the Kd in test [1] was less than 1 nM. The EC50 in test [2] was 92.7 nM.

`Cc1cnc2c(c1)S(=O)(=O)N(Cc1nc([C@H](c3ccn4c(C(F)F)nnc4c3C)C(C)(C)C(=O)O)ccc1C)CC1(CC1)O2` (single isomer, unassigned) [Example 335, (*R)-3-(3-(Difluoromethyl)-8-methyl-[1,2,4]triazolo[4,3-a]pyridin-7-yl)-2,2-dimethyl-3-(5-methyl-6-((8′-methyl-1′,1′-dioxidospiro[cyclopropane-1,4′-pyrido[2,3-b][1,4,5]oxathiazepin]-2′(3′H)-yl)methyl)pyridin-2-yl)propanoic Acid]: the Kd in test [1] amounted to 2440 nM. The EC50 in test [2] was determined as 4620 nM.

For `Cc1ccc([C@@H](c2ccn3c(C4CC4)nnc3c2C)C(C)(C)C(=O)O)cc1CN1CC2(CCOCC2)Oc2ncccc2S1(=O)=O` (single isomer, unassigned) [Example 41, (*S)-3-(3-Cyclopropyl-8-methyl-[1,2,4]triazolo[4,3-a]pyridin-7-yl)-3-(3-((1′,1′-dioxido-2,3,5,6-tetrahydrospiro[pyran-4,4′-pyrido[2,3-b][1,4,5]oxathiazepin]-2′(3′H)-yl)methyl)-4-methylphenyl)-2,2-dimethylpropanoic Acid], in test [1], the dissociation constant (Kd) is less than 1 nM. Besides, in test [2], it took 46 nM to reach a half-maximal effect (EC50).

In the case of `Cc1ccc([C@H](c2ccn3c(C(F)(F)F)nnc3c2C)C(C)(C)C(=O)O)cc1CN1CC2(CCOCC2)Oc2nc(NC3CC(O)C3)c(C)cc2S1(=O)=O` (stereo in doubt) [Example 125, (*R)-3-(3-((7′-(((1s,3S)-3-Hydroxycyclobutyl)amino)-8′-methyl-1′,1′-dioxido-2,3,5,6-tetrahydrospiro[pyran-4,4′-pyrido[2,3-b][1,4,5]oxathiazepin]-2′(3′H)-yl)methyl)-4-methylphenyl)-2,2-dimethyl-3-(8-methyl-3-(trifluoromethyl)-[1,2,4]triazolo[4,3-a]pyridine-7-yl)propanoic Acid], in test [1], the dissociation constant (Kd) is less than 1 nM. The same compound showed a concentration for a half-maximal effect (EC50) in test [2] of 140 nM.

On to `Cc1cnc2c(c1)S(=O)(=O)N(Cc1nc([C@@H](c3ccn4c(C(F)(F)F)nnc4c3C)C(C)(C)C(=O)O)ccc1C)CC1(CNC1)O2` (single isomer, unassigned) [Example 630, (*S)-2,2-Dimethyl-3-(8-methyl-3-(trifluoromethyl)-[1,2,4]triazolo[4,3-a]pyridin-7-yl)-3-(5-methyl-6-((8′-methyl-1′,1′-dioxidospiro[azetidine-3,4′-pyrido[2,3-b][1,4,5]oxathiazepin]-2′(3′H)-yl)methyl)pyridin-2-yl)propanoic Acid], for which, in test [1], the Kd turned out to be 3.81 nM. Further, the 50% effective concentration (EC50) in test [2] is 81.8 nM.

Take `Cc1ccc([C@@H](CC(=O)O)c2ccn3c(C(F)(F)F)nnc3c2C)nc1CN1CC2(CC2)Oc2ncccc2S1(=O)=O` (single isomer, unassigned) [Example 482, (*S)-3-(6-((1′,1′-Dioxidospiro[cyclopropane-1,4′-pyrido[2,3-b][1,4,5]oxathiazepin]-2′(3′H)-yl)methyl)-5-methylpyridin-2-yl)-3-(8-methyl-3-(trifluoromethyl)-[1,2,4]triazolo[4,3-a]pyridin-7-yl)propanoic Acid]: the dissociation constant Kd in test [1] was less than 1 nM. The compound also gave an EC50 in test [2] of 701 nM.

In the case of `Cc1ccc([C@@H](c2ccn3c(C(F)(F)F)nnc3c2C)C(C)(C)C(=O)O)cc1CN1CC2(CCOCC2)Oc2nc(OCCCO)ccc2S1(=O)=O` (single isomer, unassigned) [Example 50, (*S)-3-(3-((7′-(3-Hydroxypropoxy)-1′,1′-dioxido-2,3,5,6-tetrahydrospiro[pyran-4,4′-pyrido[2,3-b][1,4,5]oxathiazepin]-2′(3′H)-yl)methyl)-4-methylphenyl-2,2′-dimethyl-3-(8-methy-3-trifluoromethyl)-[1,2,4]triazolo[4,3-a]pyridine-7-yl)propanoic Acid], in test [1], the dissociation constant (Kd) was less than 1 nM. Further, the EC50 in test [2] came out at 52 nM.

For the origin of these results see patent US10947252B2, “Inhibitors of KEAP1-Nrf2 protein-protein interaction” (Janssen Pharmaceutica NV, priority 2018, dated 2021).
